The source made the active and inactive calls. The calls are words filed in the database; no cut-off is given here.
Experiments:
Coagulation factor IX [1] = biological target: T1, Coagulation factor IX (Homo sapiens, UniProt P00740); assay: Inhibition of factor 9a (unknown origin) binding to immobilized biotinylated oHG-11 assessed as activity potency of oligosaccharides multiplied by the percentage of oligosaccharides in dHG-5 by biolayer interferometry relative to dHG-5
[2] = biological target: T2, Coagulation factor VII (Homo sapiens) (UniProt P08709); assay: Inhibition of factor 7a (unknown origin) at IC50 using pefachrome factor VIIa as substrate preincubated for 1 min followed by chromogenic substrate addition and measured for 2 mins in presence of AT-III; conditions: time 3.0 min
T2 sequence (whole entry): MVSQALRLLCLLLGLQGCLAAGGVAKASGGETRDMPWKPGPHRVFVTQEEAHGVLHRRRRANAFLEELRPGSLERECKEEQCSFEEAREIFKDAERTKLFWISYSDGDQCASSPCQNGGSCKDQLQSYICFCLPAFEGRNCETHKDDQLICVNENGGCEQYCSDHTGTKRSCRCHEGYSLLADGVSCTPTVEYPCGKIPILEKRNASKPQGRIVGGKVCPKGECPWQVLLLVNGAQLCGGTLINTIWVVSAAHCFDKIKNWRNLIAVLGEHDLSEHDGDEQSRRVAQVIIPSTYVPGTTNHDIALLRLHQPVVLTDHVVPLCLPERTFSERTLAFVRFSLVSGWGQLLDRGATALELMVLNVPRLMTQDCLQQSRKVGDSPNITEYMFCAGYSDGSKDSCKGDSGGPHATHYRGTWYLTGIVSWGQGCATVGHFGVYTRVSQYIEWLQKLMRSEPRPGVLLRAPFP

[3] = biological target: Coagulation factor X (Homo sapiens) (UniProt P00742); assay: Inhibition of factor 10a (unknown origin) at IC90 preincubated for 1 min followed by chromogenic substrate addition and measured for 2 mins in presence of AT-III relative to control; conditions: time 3.0 min
Plasma [4] = assay: Anticoagulation activity in AT-III-deficient human plasma preincubated for 2 mins followed by APTT reagent and measured after 3 mins by coagulometric method; type: functional, cell-free; conditions: time 5.0 min
[5] = biological target: Coagulation factor XI (Homo sapiens) (UniProt P03951); assay: Inhibition of factor 11a (unknown origin) at IC50 using S-2366 as substrate preincubated for 1 min followed by chromogenic substrate addition and measured for 2 mins; conditions: time 3.0 min
[6] = biological target: T3, Coagulation factor IX/VIII (Homo sapiens) (UniProt P00740+P00451); assay: (§1) Inhibition of human citrated plasma iXase (factor 8a-factor 9a complex) preincubated for 2 mins followed by factor 10 addition and measured after 1 min by FXa chromogenic substrate SXa-11 based assay relative to dHG-5; type: protein-complex assay; conditions: time 3.0 min
Coagulation factor IX [7] = biological target: T1, Coagulation factor IX; assay: Inhibition of factor 9a (unknown origin) binding to immobilized biotinylated oHG-11 by biolayer interferometry relative to dHG-5
Plasma [8] = assay: Anticoagulation activity in HCII-deficient human plasma preincubated for 2 mins followed by APTT reagent and measured after 3 mins by coagulometric method; type: functional, cell-free; conditions: time 5.0 min
[9] = biological target: Prothrombin (Homo sapiens) (UniProt P00734); assay: Inhibition of factor 2a (unknown origin) at IC50 preincubated for 1 min followed by chromogenic substrate addition and measured for 2 mins; conditions: time 3.0 min
Rattus norvegicus [10] = assay: (§2) Antithrombotic activity in thromboplastin and stasis-induced Sprague-Dawley rat deep venous thrombosis model assessed as reduction in venous thrombosis at 2.36 mg/kg, sc administered 1 hr prior to thromboplastin addition for 20 secs followed by establishment of stasis for 20 mins relative to dHG-5; type: functional; conditions: time 80.33 min, 1.339 h
[11] = biological target: Coagulation factor XI (Homo sapiens) (UniProt P03951); assay: Inhibition of factor 11a (unknown origin) at IC90 using S-2366 as substrate preincubated for 1 min followed by chromogenic substrate addition and measured for 2 mins in presence of AT-III; conditions: time 3.0 min
[12] = biological target: T2, Coagulation factor VII (Homo sapiens); assay: Inhibition of factor 7a (unknown origin) at IC50 using pefachrome factor VIIa as substrate preincubated for 1 min followed by chromogenic substrate addition and measured for 2 mins; conditions: time 3.0 min
Plasma [13] = assay: (§3) Anticoagulation activity in human plasma assessed as drug level causing 20 times doubling of APTT preincubated for 2 mins followed by APTT reagent and measured after 3 mins by coagulometric method relative to dHG-5; type: functional; conditions: time 5 min
[14] = biological target: Prothrombin (Homo sapiens) (UniProt P00734); assay: Inhibition of factor 2a (unknown origin) at IC90 preincubated for 1 min followed by chromogenic substrate addition and measured for 2 mins in presence of AT-III; conditions: time 3.0 min
Plasma [15] = assay: as §3, with “of APTT by measuring activity potency of oligosaccharides multiplied by the percentage of oligosaccharides in dHG-5 preincubated for” for “of APTT preincubated for”; type: functional; conditions: time 5 min
Rattus norvegicus [16] = assay: as §2, with “venous thrombosis by measuring activity potency of oligosaccharides multiplied by the percentage of oligosaccharides in dHG-5 at 2.36” for “venous thrombosis at 2.36”; type: functional; conditions: time 80.33 min, 1.339 h
Rattus norvegicus [17] = assay: Antithrombotic activity in thromboplastin and stasis-induced Sprague-Dawley rat deep venous thrombosis model assessed as reduction in venous thrombosis at 2.36 mg/kg, sc administered 1 hr prior to thromboplastin addition for 20 secs followed by establishment of stasis for 20 mins; type: functional; set-up: scale not given: the % may be the effect or the level left; conditions: time 80.33 min, 1.339 h
[18] = biological target: T3, Coagulation factor IX/VIII (Homo sapiens); assay: as §1, with “complex) assessed as activity potency of oligosaccharides multiplied by the percentage of oligosaccharides in dHG-5” for “complex)”; type: protein-complex assay; conditions: time 3.0 min
[19] = biological target: Coagulation factor X (Homo sapiens) (UniProt P00742); assay: Inhibition of factor 10a (unknown origin) at IC50 preincubated for 1 min followed by chromogenic substrate addition and measured for 2 mins; conditions: time 3.0 min
[20] = biological target: Coagulation factor XI (Homo sapiens) (UniProt P03951); assay: Inhibition of factor 11a (unknown origin) at IC50 using S-2366 as substrate preincubated for 1 min followed by chromogenic substrate addition and measured for 2 mins in presence of AT-III; conditions: time 3.0 min
Coagulation factor IX [21] = biological target: T1, Coagulation factor IX; assay: Inhibition of factor 9a (unknown origin) binding to immobilized biotinylated oHG-11 by biolayer interferometry
[22] = biological target: T4, Coagulation factor XII (Homo sapiens) (UniProt P00748); assay: Inhibition of factor 12a (unknown origin) at IC50 using kallikrein chromogenic substrate preincubated for 1 min followed by chromogenic substrate addition and measured for 2 mins in presence of AT-III; conditions: time 3.0 min
T4 sequence (whole entry): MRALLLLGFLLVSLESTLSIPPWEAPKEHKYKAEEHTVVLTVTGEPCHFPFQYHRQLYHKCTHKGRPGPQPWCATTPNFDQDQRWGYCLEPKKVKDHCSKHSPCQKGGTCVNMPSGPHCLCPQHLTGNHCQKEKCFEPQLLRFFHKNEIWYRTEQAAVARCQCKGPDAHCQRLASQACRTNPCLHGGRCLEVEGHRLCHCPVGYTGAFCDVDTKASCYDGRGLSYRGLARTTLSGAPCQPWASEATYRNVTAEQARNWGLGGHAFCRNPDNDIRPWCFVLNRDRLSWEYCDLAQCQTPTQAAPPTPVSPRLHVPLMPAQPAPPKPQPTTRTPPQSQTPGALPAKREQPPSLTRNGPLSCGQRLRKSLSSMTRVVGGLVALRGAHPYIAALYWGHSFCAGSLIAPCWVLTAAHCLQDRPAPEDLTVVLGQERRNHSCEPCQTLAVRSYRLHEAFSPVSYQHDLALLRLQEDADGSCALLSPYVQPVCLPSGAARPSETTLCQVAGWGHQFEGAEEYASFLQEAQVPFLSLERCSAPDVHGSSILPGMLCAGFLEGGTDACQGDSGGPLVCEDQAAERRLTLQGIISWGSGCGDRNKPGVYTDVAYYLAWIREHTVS

[23] = biological target: Prothrombin (Homo sapiens) (UniProt P00734); assay: Inhibition of factor 2a (unknown origin) at IC50 preincubated for 1 min followed by chromogenic substrate addition and measured for 2 mins in presence of AT-III; conditions: time 3.0 min
[24] = biological target: Coagulation factor X (Homo sapiens) (UniProt P00742); assay: Inhibition of factor 10a (unknown origin) at IC50 preincubated for 1 min followed by chromogenic substrate addition and measured for 2 mins in presence of AT-III; conditions: time 3.0 min
[25] = biological target: Coagulation factor IX/VIII (Homo sapiens, UniProt P00451+P00740); assay: Inhibition of human citrated plasma iXase (factor 8a-factor 9a complex) preincubated for 2 mins followed by factor 10 addition and measured after 1 min by FXa chromogenic substrate SXa-11 based assay; type: protein-complex assay
[26] = biological target: T4, Coagulation factor XII (Homo sapiens); assay: Inhibition of factor 12a (unknown origin) at IC50 using kallikrein chromogenic substrate preincubated for 1 min followed by chromogenic substrate addition and measured for 2 mins; conditions: time 3.0 min

T1 sequence (P00740 47-191 limits assumed): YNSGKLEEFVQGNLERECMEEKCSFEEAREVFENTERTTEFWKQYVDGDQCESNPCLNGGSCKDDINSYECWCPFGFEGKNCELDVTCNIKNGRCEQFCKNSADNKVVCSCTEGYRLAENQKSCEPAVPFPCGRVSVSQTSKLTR
T1 sequence (P00740 227-461 limits assumed): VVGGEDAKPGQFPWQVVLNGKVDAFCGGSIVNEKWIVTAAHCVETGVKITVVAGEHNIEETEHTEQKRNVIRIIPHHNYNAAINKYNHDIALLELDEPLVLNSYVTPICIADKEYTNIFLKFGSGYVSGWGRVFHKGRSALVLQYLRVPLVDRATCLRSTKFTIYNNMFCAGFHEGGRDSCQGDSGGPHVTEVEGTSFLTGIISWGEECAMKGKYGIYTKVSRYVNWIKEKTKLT
Chain of Coagulation factor XI (Homo sapiens) (P03951 19-387 limits assumed): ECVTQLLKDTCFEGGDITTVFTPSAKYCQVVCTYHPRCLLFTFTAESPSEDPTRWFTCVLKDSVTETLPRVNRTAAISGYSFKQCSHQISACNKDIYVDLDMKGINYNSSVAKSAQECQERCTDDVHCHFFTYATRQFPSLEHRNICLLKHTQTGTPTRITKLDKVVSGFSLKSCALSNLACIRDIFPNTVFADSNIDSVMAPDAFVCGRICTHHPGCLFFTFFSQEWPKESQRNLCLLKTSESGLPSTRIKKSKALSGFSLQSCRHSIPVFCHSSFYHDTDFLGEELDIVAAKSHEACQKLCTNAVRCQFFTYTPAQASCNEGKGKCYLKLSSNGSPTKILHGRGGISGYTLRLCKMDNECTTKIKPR
Chain of Coagulation factor XI (Homo sapiens) (P03951 388-625 limits assumed): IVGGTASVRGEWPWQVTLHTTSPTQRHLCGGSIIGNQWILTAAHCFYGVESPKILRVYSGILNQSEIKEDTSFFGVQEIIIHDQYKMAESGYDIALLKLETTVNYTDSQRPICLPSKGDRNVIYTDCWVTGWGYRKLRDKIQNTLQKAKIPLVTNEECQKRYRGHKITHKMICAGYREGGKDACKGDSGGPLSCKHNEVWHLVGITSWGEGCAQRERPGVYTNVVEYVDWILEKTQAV
Chain of Coagulation factor X (Homo sapiens) (P00742 41-179 limits assumed): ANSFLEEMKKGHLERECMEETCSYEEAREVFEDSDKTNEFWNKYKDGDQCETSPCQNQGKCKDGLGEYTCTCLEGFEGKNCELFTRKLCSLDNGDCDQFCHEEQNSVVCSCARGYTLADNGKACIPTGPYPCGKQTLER
Chain of Coagulation factor X (Homo sapiens) (P00742 235-488 limits assumed): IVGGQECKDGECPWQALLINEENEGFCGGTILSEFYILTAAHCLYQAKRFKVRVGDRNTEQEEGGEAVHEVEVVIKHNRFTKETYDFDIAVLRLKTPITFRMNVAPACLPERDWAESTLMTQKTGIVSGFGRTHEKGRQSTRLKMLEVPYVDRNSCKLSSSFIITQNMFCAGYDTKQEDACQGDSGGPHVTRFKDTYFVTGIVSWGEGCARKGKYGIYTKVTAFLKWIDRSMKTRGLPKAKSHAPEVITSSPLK
Chain of Coagulation factor IX/VIII (P00451 20-759 limits assumed): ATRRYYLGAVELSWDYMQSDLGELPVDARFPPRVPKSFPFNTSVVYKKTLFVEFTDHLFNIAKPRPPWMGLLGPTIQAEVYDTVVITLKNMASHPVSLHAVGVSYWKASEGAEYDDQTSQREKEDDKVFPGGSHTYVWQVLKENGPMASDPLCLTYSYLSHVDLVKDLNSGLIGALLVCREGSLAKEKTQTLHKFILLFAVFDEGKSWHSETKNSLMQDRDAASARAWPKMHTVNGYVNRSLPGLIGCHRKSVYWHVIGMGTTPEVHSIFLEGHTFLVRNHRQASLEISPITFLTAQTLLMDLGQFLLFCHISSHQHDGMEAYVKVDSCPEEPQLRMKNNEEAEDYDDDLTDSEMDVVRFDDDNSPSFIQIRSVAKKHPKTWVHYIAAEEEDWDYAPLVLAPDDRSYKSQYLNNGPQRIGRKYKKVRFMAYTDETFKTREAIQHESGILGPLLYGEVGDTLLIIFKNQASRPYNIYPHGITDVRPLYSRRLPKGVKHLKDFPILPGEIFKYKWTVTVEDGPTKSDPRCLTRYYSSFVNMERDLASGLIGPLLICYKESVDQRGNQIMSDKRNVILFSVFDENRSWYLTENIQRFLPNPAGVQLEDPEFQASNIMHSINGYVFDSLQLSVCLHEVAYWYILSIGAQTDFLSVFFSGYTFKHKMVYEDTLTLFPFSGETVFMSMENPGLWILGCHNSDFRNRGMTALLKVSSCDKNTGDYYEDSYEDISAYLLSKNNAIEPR
Chain of Coagulation factor IX/VIII (P00451 1668-2351 limits assumed): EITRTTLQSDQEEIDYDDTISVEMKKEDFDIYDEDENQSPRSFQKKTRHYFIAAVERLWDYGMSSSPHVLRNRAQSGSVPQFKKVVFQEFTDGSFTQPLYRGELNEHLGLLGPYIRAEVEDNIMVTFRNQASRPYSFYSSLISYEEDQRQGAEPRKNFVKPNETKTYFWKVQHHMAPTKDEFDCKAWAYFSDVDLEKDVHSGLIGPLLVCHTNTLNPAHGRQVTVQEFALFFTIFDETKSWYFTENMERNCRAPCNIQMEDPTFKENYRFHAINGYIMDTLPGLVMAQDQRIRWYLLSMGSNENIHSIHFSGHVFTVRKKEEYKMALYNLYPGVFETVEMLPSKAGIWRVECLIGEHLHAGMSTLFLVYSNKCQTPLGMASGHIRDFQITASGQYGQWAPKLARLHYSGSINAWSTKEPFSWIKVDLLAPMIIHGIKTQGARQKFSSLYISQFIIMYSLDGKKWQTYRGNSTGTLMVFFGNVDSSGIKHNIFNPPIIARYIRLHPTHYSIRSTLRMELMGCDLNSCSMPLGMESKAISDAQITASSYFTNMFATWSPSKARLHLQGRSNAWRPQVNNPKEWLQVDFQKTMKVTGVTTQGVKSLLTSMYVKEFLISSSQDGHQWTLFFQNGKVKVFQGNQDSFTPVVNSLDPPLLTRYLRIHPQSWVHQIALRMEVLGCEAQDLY
Chain of Coagulation factor IX/VIII (P00740 47-191 limits assumed): as the sequence (P00740 47-191 limits assumed) above
Chain of Coagulation factor IX/VIII (P00740 227-461 limits assumed): as the sequence (P00740 227-461 limits assumed) above

Ratio (Coagulation factor IX [1]): 14.1 U
inhibition [2]: inactive
inhibition [3]: inactive
inhibition [5]: inactive
Ratio [6]: 81.6 U
Ratio (Coagulation factor IX [7]): 103 U
inhibition [9]: inactive
inhibition [11]: Active
inhibition (active/not active) [12]: inactive
inhibition [14]: Active
Ratio [18]: 11.1 U
inhibition [19]: inactive
inhibition [20]: inactive
IC50 (Coagulation factor IX [21]): 416 nM
inhibition [22]: inactive
inhibition [23]: inactive
inhibition [24]: inactive
IC50 [25]: 17.2 nM
inhibition [26]: inactive
SMILES: CC(=O)N[C@H]1[C@H](O[C@@H]([C@H](O[C@@H]2O[C@@H](C)[C@@H](OS(=O)(=O)[O-])[C@@H](OS(=O)(=O)O)[C@@H]2O)[C@@H](O)CO)[C@H](O)C(=O)[O-])O[C@H](COS(=O)(=O)[O-])[C@H](OS(=O)(=O)[O-])[C@@H]1O[C@@H]1O[C@H](C(=O)[O-])[C@@H](O[C@@H]2O[C@H](COS(=O)(=O)[O-])[C@H](OS(=O)(=O)[O-])[C@H](O[C@@H]3O[C@H](C(=O)[O-])[C@@H](O[C@@H]4O[C@H](COS(=O)(=O)[O-])[C@H](OS(=O)(=O)[O-])[C@H](O[C@@H]5O[C@H](C(=O)[O-])[C@@H](O[C@@H]6O[C@H](COS(=O)(=O)[O-])[C@H](OS(=O)(=O)[O-])[C@H](O[C@@H]7O[C@H](C(=O)[O-])[C@@H](O[C@@H]8O[C@H](COS(=O)(=O)[O-])[C@H](OS(=O)(=O)[O-])[C@H](O[C@@H]9OC(C(=O)[O-])=C[C@H](O[C@@H]%10O[C@@H](C)[C@@H](OS(=O)(=O)[O-])[C@@H](OS(=O)(=O)O)[C@@H]%10O)[C@H]9O)[C@H]8NC(C)=O)[C@H](O[C@@H]8O[C@@H](C)[C@@H](OS(=O)(=O)[O-])[C@@H](OS(=O)(=O)O)[C@@H]8O)[C@H]7O)[C@H]6NC(C)=O)[C@H](O[C@@H]6O[C@@H](C)[C@@H](OS(=O)(=O)[O-])[C@@H](OS(=O)(=O)O)[C@@H]6O)[C@H]5O)[C@H]4NC(C)=O)[C@H](O[C@@H]4O[C@@H](C)[C@@H](OS(=O)(=O)[O-])[C@@H](OS(=O)(=O)O)[C@@H]4O)[C@H]3O)[C@H]2NC(C)=O)[C@H](O[C@@H]2O[C@@H](C)[C@@H](OS(=O)(=O)[O-])[C@@H](OS(=O)(=O)O)[C@@H]2O)[C@H]1O.[Na+].[Na+].[Na+].[Na+].[Na+].[Na+].[Na+].[Na+].[Na+].[Na+].[Na+].[Na+].[Na+].[Na+].[Na+].[Na+].[Na+].[Na+].[Na+].[Na+].[Na+].[Na+]
Activity (Plasma [4]): Active
Activity (Plasma [8]): Active
Ratio (Rattus norvegicus [10]): 123.01 U
Ratio (Plasma [13]): 104.07 U
Ratio (Plasma [15]): 14.17 U
Ratio (Rattus norvegicus [16]): 16.73 U
Activity (Rattus norvegicus [17]): 58.4%

— ChEMBL document CHEMBL4765450, “The components and activities analysis of a novel anticoagulant candidate dHG-5” (Eur J Med Chem, 2020)
